# Data taken from patent US20250304587A1, “WEE1 INHIBITOR, PREPARATION THEREFOR AND USE THEREOF” (JIANGSU TASLY DIYI PHARMACEUTICAL CO., LTD., priority 2022, published 2025).
# Read-outs that look alike come from different tables or passages of the source.
# What was measured:
# [1] = system: Caco-2 cells; test: Membrane permeability in Caco-2 model; type: in vitro ADME
# Summary of the method: (§1)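 Caco-2 monolayers grown 21-28 days post-seeding, integrity checked by Lucifer Yellow Papp. Apical and basolateral compound levels measured by LC-MS/MS against a standard curve to derive apparent permeability (Papp).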
# [2] = system: plasma protein; test: Plasma protein binding (equilibrium dialysis), mouse; conditions: mouse plasma, 1 μM, 5 h dialysis
# Experimental: (§5) Sample preparation: The compound was dissolved in DMSO to a stock solution of 10 mM, then the compound was diluted with PBS to a secondary stock solution of 0.02 mM, and then the above 0.02 mM was diluted to 1 μM using blank plasma, which was the sample to be incubated.
# (§6) Dialysis set-up preparation: 400 μL of blank PBS was first added to the white wells of the equilibrated dialysis plate and 200 μL of the configured plasma sample was added to the red wells, and the dialysis plate was sealed with a sealing film.
# (§7) Recovery plate preparation: Two 96-well deep-well plates, labelled T0 and T5, were prepared and all plasma samples were added at n=2. 300 μL of acetonitrile (Verapamil-HCl, 4 ng/mL) was added directly to the TO plate, followed by 50 μL of blank PBS mix well for 5 min and left to stand in a 4° C. refrigerator until the end of the incubation.
# (§8) Experimental Operation: The dialysis device and the T5 plate were incubated together for 5 h in a microplate thermostatic shaker (37° C., using 300 rpm or minimum speed). At the end of the incubation, 300 μL of acetonitrile (Verapamil-HCl, 4 ng/mL) was added and 50 μL of PBS solution was added. At the end of the dialysis incubation, a new 96-well deep well plate was taken. Add 50 μL of plasma well sample to the corresponding position of the 96-well plate, 300 μL of acetonitrile and 50 μL of blank PBS; take 50 μL of buffer well sample to the corresponding position of the 96-well plate, then add 300 μL of acetonitrile and 50 μL of blank plasma. Add 300 μL of acetonitrile (Verapamil-HCl, 4 ng/mL) to the plasma-containing wells of the T5 plate, and then 50 μL of PBS solution was added. Shake for 5 min to fully precipitate the proteins and centrifuge at 20,000 g for 10 min at 4° C. Add 200 μL of supernatant to 200 μL of pure water, mix well and perform LC-MS/MS analysis.
# (§9) • Plasma protein binding rate=[(Rpe−Rb)/Rpe]×100% • Recovery=[(Rpe+Rb)/R5 h]×100% • Stability=(R5/R0)×100%
# (§10) • Rpe=ratio of plasma-side testing sample peak area to internal standard • Rb=ratio of buffer side testing sample peak area to internal standard • R5=ratio of incubator stability sample peak area to internal standard • R0=ratio of refrigerator stability sample peak area to internal standard
# [3] = Single dose toxicity in rats, maximum tolerated dose
# [4] = target: hERG potassium channel (Homo sapiens (Human), UniProt Q12809); test: hERG potassium channel inhibition, patch clamp in CHO hERG cells
# Chain of hERG potassium channel (Q12809 whole entry): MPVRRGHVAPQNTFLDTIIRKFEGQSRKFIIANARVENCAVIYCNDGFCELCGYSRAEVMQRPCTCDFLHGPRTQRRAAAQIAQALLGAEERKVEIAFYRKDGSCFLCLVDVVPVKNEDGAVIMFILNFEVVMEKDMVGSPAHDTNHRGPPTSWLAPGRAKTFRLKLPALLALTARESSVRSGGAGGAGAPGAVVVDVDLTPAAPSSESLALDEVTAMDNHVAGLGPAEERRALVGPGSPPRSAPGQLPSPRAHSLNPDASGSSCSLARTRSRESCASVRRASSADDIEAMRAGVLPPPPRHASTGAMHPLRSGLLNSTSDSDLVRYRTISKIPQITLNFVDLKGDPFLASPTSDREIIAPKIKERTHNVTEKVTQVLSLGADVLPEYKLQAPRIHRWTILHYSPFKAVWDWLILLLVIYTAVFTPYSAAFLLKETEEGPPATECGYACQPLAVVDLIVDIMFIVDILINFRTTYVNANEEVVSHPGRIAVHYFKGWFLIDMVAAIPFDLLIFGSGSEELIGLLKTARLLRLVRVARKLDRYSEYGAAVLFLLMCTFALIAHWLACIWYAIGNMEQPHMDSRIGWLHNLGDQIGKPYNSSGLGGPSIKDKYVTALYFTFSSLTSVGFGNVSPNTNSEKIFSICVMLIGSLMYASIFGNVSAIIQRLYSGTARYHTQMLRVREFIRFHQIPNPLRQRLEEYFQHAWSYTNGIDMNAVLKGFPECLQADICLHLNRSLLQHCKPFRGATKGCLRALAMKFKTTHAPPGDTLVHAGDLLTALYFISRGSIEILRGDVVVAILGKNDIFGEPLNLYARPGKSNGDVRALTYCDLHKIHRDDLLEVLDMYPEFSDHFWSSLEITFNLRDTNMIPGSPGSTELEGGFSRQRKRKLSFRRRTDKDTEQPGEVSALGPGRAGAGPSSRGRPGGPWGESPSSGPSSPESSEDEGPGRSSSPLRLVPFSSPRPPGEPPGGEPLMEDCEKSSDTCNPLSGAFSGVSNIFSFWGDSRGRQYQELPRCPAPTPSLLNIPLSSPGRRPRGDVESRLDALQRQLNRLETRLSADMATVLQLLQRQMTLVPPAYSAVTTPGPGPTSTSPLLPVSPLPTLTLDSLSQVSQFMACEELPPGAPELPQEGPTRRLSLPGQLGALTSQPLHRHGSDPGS
# Experimental: The cell line used for the patch clamp assay was a 10th generation CHO cell overexpressing hERG potassium channel cDNA. CHO hERG cells were cultured in Petri dishes or flasks at 37° C. in a 5% CO2 incubator. Cells were dropped onto circular slides 24-48 hours prior to electrophysiological experiments and cultured in cell culture medium and used for experiments after the cells had been adhered.
# Cell culture medium (purchased from Invitrogen) Composition: • Ham's F12 medium • 10% (v/v) heat inactivated FBS • 100 μg/ml Hygromycin B (thaumatin) • 100 μg/ml Geneticin (Genomycin, G418)
# Compound powders are dissolved in the extracellular solution and are subjected to a routine 5 to 10 minute sonication and shaking to ensure complete dissolution of the compound.
# The final concentrations of compounds used for electrophysiological assays were 5, 20 μM and the final concentration of DMSO was 0.1%.
# Cell membrane currents were recorded using a HEKA EPC-10 USB patch-clamp amplifier (HEKA Elektronik, Germany). • 1) A coverslip with a large number of uniformly growing individual CHO hERG cells on its surface was taken. Place in a continuous recording cell on an inverted microscope, perfused with extracellular fluid (approximately 1 ml per minute) and recorded continuously, waiting for the current to stabilize. • 2) Record HERG channel currents for individual cells using standard whole cell recording mode. The membrane voltage is first clamped at −80 mV and the cell is given a +20 mV stimulus for 5 s to activate the hERG potassium channel, then repolarized to −50 mV for 5 s to generate an outward tail current, which is continuously perfused until the current is stable, at which point the peak tail current is the control current value. • 3) The extracellular solution containing the drug to be tested was then perfused and recorded until the inhibitory effect of the drug on the hERG current reached a steady state, at which point the peak tail current was the post-drug current value. • 4) The cells are again perfused with the extracellular solution until the hERG current returns to or approaches the level prior to the addition of the drug, then the perfusion can be continued to test other concentrations or drugs. One or more compound or drug concentrations may be tested on each cell. • 5) Cisapride (C4740-10 mg, Sigma) is used as a positive control in the experiment to ensure that the cells used respond properly.
# [5] = system: plasma protein; test: Plasma protein binding (equilibrium dialysis), human; type: in vitro ADME; conditions: 1 μM, 5 h dialysis
# [6] = Membrane permeability in Caco-2 model; type: in vitro ADME; conditions: human, Caco-2, pH 7.4; Caco2, 10 μM, 90 min
# Summary of the method: as §1
# [7] = Plasma protein binding (equilibrium dialysis), mouse; conditions: mouse, plasma
# Experimental: as §5, §6, §7, §8, §9, §10
# [8] = system: BxPC3 cells; test: Cell Titer-Glo anti-proliferation, BxPC3 cells; type: cell-based, human; conditions: Homo sapiens, BXPC-3, 72 h, 3 days, read-out: Anti-proliferative activity BxPC3 (IC50 class)
# Summary of the method: (§2)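 Each line was exposed to graded compound concentrations for 3 days at 37 °C, 5% CO2, with final DMSO at 0.2%. Viability was measured by Cell Titer-Glo luminescence, with untreated cells as the maximum and medium as the minimum signal. IC50 came from a variable-slope log(inhibitor)-response fit.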
# [9] = target: CYP 2B6 (Homo sapiens (Human), UniProt P20813); test: Cytochrome P450 inhibition, CYP2B6; type: in vitro ADME
# Chain of CYP 2B6 (P20813 whole entry, canonical isoform): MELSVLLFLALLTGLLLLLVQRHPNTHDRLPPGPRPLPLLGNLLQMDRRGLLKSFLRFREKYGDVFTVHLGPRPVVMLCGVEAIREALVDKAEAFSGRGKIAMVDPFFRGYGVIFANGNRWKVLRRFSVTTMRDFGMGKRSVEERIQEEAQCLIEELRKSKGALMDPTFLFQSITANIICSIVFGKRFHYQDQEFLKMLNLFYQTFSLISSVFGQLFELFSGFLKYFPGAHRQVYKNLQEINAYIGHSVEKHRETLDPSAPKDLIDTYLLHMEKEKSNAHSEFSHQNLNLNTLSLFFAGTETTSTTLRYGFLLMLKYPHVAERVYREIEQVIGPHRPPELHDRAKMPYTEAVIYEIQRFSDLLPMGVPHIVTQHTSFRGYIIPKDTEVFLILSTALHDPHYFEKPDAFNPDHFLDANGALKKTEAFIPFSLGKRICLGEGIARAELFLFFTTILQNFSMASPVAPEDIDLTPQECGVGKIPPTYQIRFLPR
# Experimental: (§3) Enzymatic experiments were performed to quantify the inhibition of CYP450 enzyme activity of each isoform of CYP450 by small molecule inhibitors through fluorescence generated by the oxidation of the substrate by cytochrome P450. […] The Solution B composition used for the experiment was: 40 U/mL G6PDH (Sigma-aldrich, Cat #G6378). The substrate mix was 0.05× Solution A, 0.01× Solution B, 50 mM Potassium Phosphate, 0.01 mM BOMCC/0.01 mM EOMCC/0.001 mM DBOMF. […] The data were analyzed and processed using GraphPad Prism 6 software to obtain IC50 values.
# [10] = system: HUVEC cells; test: Cell Titer-Glo anti-proliferation, normal cells HUVEC; type: cell-based; conditions: Homo sapiens, HUVEC
# Summary of the method: (§4)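 Cells were exposed to serial compound concentrations (0.2% DMSO final) for 3 days at 37 °C, 5% CO2, then lysed with Cell Titer-Glo and read by luminescence. Inhibition was referenced to untreated-cell and medium-only controls, and IC50 came from a four-parameter variable-slope log(inhibitor)–response fit.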
# [11] = Plasma protein binding (equilibrium dialysis), human; type: in vitro ADME; conditions: 5 h dialysis, read-out: Plasma Protein binding (PPB) Human (converted)
# [12] = SD, rat, in vivo, 14 days
# [13] = system: HT-29 cells; test: Cell Titer-Glo anti-proliferation, HT-29 cells; type: cell-based, human; conditions: Homo sapiens, HT-29, 72 h, 3 days, read-out: Anti-proliferative activity HT-29 (IC50 class)
# Summary of the method: as §2
# [14] = system: HK2 cells; test: Cell Titer-Glo anti-proliferation, normal cells HK2; type: cell-based; conditions: Homo sapiens, HK-2
# Summary of the method: as §4
# [15] = system: OVCAR-3 cells; test: Cell Titer-Glo anti-proliferation, OVCAR-3 cells; type: cell-based; conditions: Homo sapiens, OVCAR-3, 72 h, 3 days, read-out: Anti-proliferative activity OVCAR-3 (IC50 class)
# Summary of the method: as §2
# [16] = target: CYP1A2 (Homo sapiens (Human), UniProt P05177); test: Cytochrome P450 inhibition (fluorescence), CYP1A2; type: in vitro ADME; conditions: read-out: IC50 CYP1A2
# Chain of CYP1A2 (P05177 whole entry): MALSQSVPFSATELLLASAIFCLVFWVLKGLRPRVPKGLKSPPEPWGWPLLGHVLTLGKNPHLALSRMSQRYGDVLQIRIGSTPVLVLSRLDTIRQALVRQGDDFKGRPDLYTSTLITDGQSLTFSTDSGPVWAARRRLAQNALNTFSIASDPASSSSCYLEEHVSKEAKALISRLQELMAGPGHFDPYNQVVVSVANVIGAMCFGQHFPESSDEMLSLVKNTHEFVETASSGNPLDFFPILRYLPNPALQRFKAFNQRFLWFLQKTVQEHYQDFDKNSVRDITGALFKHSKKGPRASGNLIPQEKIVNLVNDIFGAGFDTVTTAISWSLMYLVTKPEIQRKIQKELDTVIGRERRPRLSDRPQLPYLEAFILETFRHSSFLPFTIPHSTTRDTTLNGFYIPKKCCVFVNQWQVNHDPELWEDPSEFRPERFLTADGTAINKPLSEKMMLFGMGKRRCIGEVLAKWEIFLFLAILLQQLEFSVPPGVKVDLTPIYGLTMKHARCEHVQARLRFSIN
# Experimental: as §3
# [17] = target: CYP2C9 (Homo sapiens (Human), UniProt P11712); test: Cytochrome P450 inhibition (fluorescence), CYP2C9; type: in vitro ADME; conditions: read-out: IC50 CYP2C9
# Chain of CYP2C9 (P11712 whole entry): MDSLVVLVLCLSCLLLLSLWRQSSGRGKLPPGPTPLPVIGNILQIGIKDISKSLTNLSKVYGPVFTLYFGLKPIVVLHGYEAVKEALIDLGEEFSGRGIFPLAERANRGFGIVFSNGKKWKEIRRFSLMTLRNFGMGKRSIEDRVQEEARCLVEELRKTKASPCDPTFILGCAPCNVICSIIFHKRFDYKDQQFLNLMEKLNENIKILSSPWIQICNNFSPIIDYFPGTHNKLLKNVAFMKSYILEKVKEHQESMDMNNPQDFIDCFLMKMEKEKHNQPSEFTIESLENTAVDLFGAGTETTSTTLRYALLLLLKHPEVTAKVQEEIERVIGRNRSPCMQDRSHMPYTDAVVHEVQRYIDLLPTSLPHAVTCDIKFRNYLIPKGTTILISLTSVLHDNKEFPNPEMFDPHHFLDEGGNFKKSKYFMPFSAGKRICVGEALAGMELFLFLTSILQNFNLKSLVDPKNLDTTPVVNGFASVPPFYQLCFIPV
# Experimental: as §3
# [18] = female rats, 200 mg/kg by gavage
# [19] = female rats, 300 mg/kg by gavage
# [20] = female rats, 400 mg/kg by gavage
# [21] = female rats, 500 mg/kg by gavage
smiles,measurement,setting,value
[2H][C@]1(O)c2nc(-n3c4nc(Nc5ccc(N6CCC7(CCN(C)CC7)CC6)cc5)ncc4c(=O)n3CC=C)ccc2CCC12CC2 [Compound 37b],Efflux Ration,[1]; Caco2,21.06
same,Papp A to B,"[1]; Caco2, 10 μM, 90 min",0.46 10^−6 cm/s
same,Papp B to A,"[1]; Caco2, 10 μM, 90 min",9.69 10^−6 cm/s
same,Plasma Protein binding (PPB) Mouse,[2],92.46%
same,Death Numbers,[3]; [18],0
same,Death Rate,[3]; [18],0%
same,Death Numbers,[3]; [19],0
same,Death Rate,[3]; [19],0%
same,Death Numbers,[3]; [20],3
same,Death Rate,[3]; [20],60%
same,Death Numbers,[3]; [21],2
same,Death Rate,[3]; [21],67%
same,Death Numbers,"[3]; male rats, 200 mg/kg by gavage",0
same,Death Rate,"[3]; male rats, 200 mg/kg by gavage",0%
same,Death Numbers,"[3]; male rats, 300 mg/kg by gavage",0
same,Death Rate,"[3]; male rats, 300 mg/kg by gavage",0%
same,Death Numbers,"[3]; male rats, 400 mg/kg by gavage",2
same,Death Rate,"[3]; male rats, 400 mg/kg by gavage",40%
same,Death Numbers,"[3]; male rats, 500 mg/kg by gavage",2
same,Death Rate,"[3]; male rats, 500 mg/kg by gavage",40%
same,hERG Inhibition,[4]; test concentration 5 μM,18.00 ± 4.80%
same,hERG Inhibition,[4]; test concentration 20 μM,34.70 ± 4.40%
same,Plasma Protein binding (PPB) Human,[5],77.58%
"C=CCn1c(=O)c2cnc(Nc3ccc(N4CCN(C)CC4)cc3)nc2n1-c1cccc(C(C)(C)O)n1 [AZD1775, reference compound]","Papp A→B at 90 min, 10 µM",[6],0.8 ×10⁻⁶ cm/s
same,"Papp B→A at 90 min, 10 µM",[6],15.2 ×10⁻⁶ cm/s
same,"fraction unbound at 5 h, 1 µM",[7],0.087
same,IC50,[8],100 to 1000 nM
same,IC50,[9],> 10000 nM
same,IC50,[10],> 10000 nM
same,"fraction unbound at 5 h, 1 µM",[11],0.336
same,Survival of Rats,"[12]; female, 25 mg/kg",7/7
same,Survival of Rats,"[12]; female, 75 mg/kg",0/7
same,Survival of Rats,"[12]; male, 25 mg/kg",7/7
same,Survival of Rats,"[12]; male, 75 mg/kg",1/7
same,IC50,[13],100 to 1000 nM
same,IC50,[14],260 nM
same,IC50,[15],100 to 1000 nM
same,IC50,[16],> 10000 nM
same,IC50,[17],> 10000 nM
